Tested on: NOMO1
Experiment: cell viability relative to DMSO control; higher = less cytotoxic
Conditions: 48 h
In short: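 Viability values are per-plate percentages of DMSO wells, with background from cell-free wells. Library compounds in DMSO were pin-dosed, in an 11-point threefold series from 47 μM to 0.79 nM, onto NOMO1 or SEM (500 cells/well) or P12-Ichikawa (1000 cells/well) leukemia cells in 1536-well plates (5 μl). Those cells had been adapted for at least four passages in each medium, and CellTiter-Glo One luminescence was read after 48 h at 37°C.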

[1] = HPLM + 10% dialyzed FBS, 0.000781 µM
[2] = HPLM + 10% dialyzed FBS, 0.00234 µM
[3] = HPLM + 10% dialyzed FBS, 0.00702 µM
[4] = HPLM + 10% dialyzed FBS, 0.0211 µM
[5] = HPLM + 10% dialyzed FBS, 0.0632 µM
[6] = HPLM + 10% dialyzed FBS, 0.19 µM
[7] = HPLM + 10% dialyzed FBS, 0.569 µM
[8] = HPLM + 10% dialyzed FBS, 1.71 µM
[9] = HPLM + 10% dialyzed FBS, 5.12 µM
[10] = HPLM + 10% dialyzed FBS, 15.4 µM
[11] = HPLM + 10% dialyzed FBS, 46.1 µM
[12] = RPMI 5 mM glucose + 10% FBS, 0.000781 µM
[13] = RPMI 5 mM glucose + 10% FBS, 0.00234 µM
[14] = RPMI 5 mM glucose + 10% FBS, 0.00702 µM
[15] = RPMI 5 mM glucose + 10% FBS, 0.0211 µM
[16] = RPMI 5 mM glucose + 10% FBS, 0.0632 µM
[17] = RPMI 5 mM glucose + 10% FBS, 0.19 µM
[18] = RPMI 5 mM glucose + 10% FBS, 0.569 µM
[19] = RPMI 5 mM glucose + 10% FBS, 1.71 µM
[20] = RPMI 5 mM glucose + 10% FBS, 5.12 µM
[21] = RPMI 5 mM glucose + 10% FBS, 15.4 µM
[22] = RPMI 5 mM glucose + 10% FBS, 46.1 µM
[23] = RPMI 5 mM glucose + 10% dialyzed FBS, 0.000781 µM
[24] = RPMI 5 mM glucose + 10% dialyzed FBS, 0.00234 µM
[25] = RPMI 5 mM glucose + 10% dialyzed FBS, 0.00702 µM
[26] = RPMI 5 mM glucose + 10% dialyzed FBS, 0.0211 µM
[27] = RPMI 5 mM glucose + 10% dialyzed FBS, 0.0632 µM
[28] = RPMI 5 mM glucose + 10% dialyzed FBS, 0.19 µM
[29] = RPMI 5 mM glucose + 10% dialyzed FBS, 0.569 µM
[30] = RPMI 5 mM glucose + 10% dialyzed FBS, 1.71 µM
[31] = RPMI 5 mM glucose + 10% dialyzed FBS, 5.12 µM
[32] = RPMI 5 mM glucose + 10% dialyzed FBS, 15.4 µM
[33] = RPMI 5 mM glucose + 10% dialyzed FBS, 46.1 µM

| SMILES | cell viability [1] | cell viability [2] | cell viability [3] | cell viability [4] | cell viability [5] | cell viability [6] | cell viability [7] | cell viability [8] | cell viability [9] | cell viability [10] | cell viability [11] | cell viability [12] | cell viability [13] | cell viability [14] | cell viability [15] | cell viability [16] | cell viability [17] | cell viability [18] | cell viability [19] | cell viability [20] | cell viability [21] | cell viability [22] | cell viability [23] | cell viability [24] | cell viability [25] | cell viability [26] | cell viability [27] | cell viability [28] | cell viability [29] | cell viability [30] | cell viability [31] | cell viability [32] | cell viability [33] |
| --- | --- | --- | --- | --- | --- | --- | --- | --- | --- | --- | --- | --- | --- | --- | --- | --- | --- | --- | --- | --- | --- | --- | --- | --- | --- | --- | --- | --- | --- | --- | --- | --- | --- |
| CC(C)C[C@H](CN)CC(=O)O | 105% | 108% | 122% | 109% | 98.1% | 96.1% | 108% | 117% | 101% | 79.6% | 91.7% | 90.3% | 95.6% | 102% | 97.8% | 87.9% | 89.9% | 99.3% | 93.6% | 91.5% | 90.3% | 83.8% | 97.3% | 100% | 105% | 106% | 95.8% | 97.6% | 99.3% | 89.3% | 99.2% | 92.1% | 90% |
| Cc1cc2c(C(C)C)c(O)c(O)c(C=O)c2c(O)c1-c1c(C)cc2c(C(C)C)c(O)c(O)c(C=O)c2c1O | 122% | 123% | 135% | 137% | 115% | 107% | 116% | 105% | 105% | 100% | 50.8% | 100% | 116% | 104% | 109% | 107% | 106% | 115% | 97.1% | 98.5% | 92.8% | 12% | 115% | 115% | 114% | 121% | 114% | 102% | 103% | 106% | 110% | 94.6% | 27.5% |
| C[C@H](NC(=O)C(=O)Nc1ccccc1C(C)(C)C)C(=O)N[C@@H](CC(=O)O)C(=O)COc1c(F)c(F)cc(F)c1F | 124% | 120% | 133% | 123% | 142% | 137% | 123% | 141% | 121% | 51.6% | 39% | 115% | 117% | 121% | 118% | 122% | 129% | 131% | 116% | 122% | 89.1% | 26.5% |  |  |  |  |  |  |  |  |  |  |  |
| CCOC(=O)Nc1ccc(NCc2ccc(F)cc2)cc1N | 112% | 120% | 126% | 129% | 116% | 110% | 121% | 107% | 99.1% | 65.1% | 31.5% | 107% | 112% | 117% | 116% | 117% | 118% | 112% | 113% | 105% | 94.3% | 24.6% | 115% | 133% | 119% | 119% | 115% | 123% | 110% | 107% | 107% | 89.8% | 33.9% |
| COc1cc2nccc(Oc3ccc(NC(=O)Nc4ccc(F)cc4F)c(F)c3)c2cc1OC | 101% | 95.8% | 94.1% | 84.6% | 89.9% | 86% | 90.3% | 83.6% | 75% | 78.7% | 72.2% | 83% | 95.8% | 79.6% | 90.5% | 96.2% | 88.1% | 87.5% | 90.9% | 83% | 80.1% | 75.7% | 96.6% | 96.1% | 103% | 91.9% | 94.5% | 90.1% | 81.7% | 102% | 80.7% | 83.2% | 54.6% |
